Legend:
[1] = molecular target: T1, adenosine receptor 2A (A2A) (Homo sapiens, UniProt P29274); assay: Functional antagonist assay monitoring cAMP (CEREP); type: cell-based; conditions: concentration-response up to 10 μM; read-out: IC50, cAMP;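 note: eight-point concentration-response from 0 to 10 µM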
T1 construct: CEREP (Poitiers, France), paid service
Description: (§1) Competition binding assay using radioactive ligands and functional assay monitoring cAMP were carried out as a paid service provided by CEREP (Poitiers, France). The functional assays monitoring Ca^2+ flux were carried out as a paid service provided by DiscoveRx (Carlsbad, CA).

[2] = molecular target: T1, adenosine receptor 2A (A2A); assay: Functional assay monitoring Ca2+ flux (DiscoveRx); type: cell-based; conditions: read-out: IC50, Ca2+, M;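 note: concentration-response testing with 10 µM as highest concentration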
Description: as §1

A2A = conditions: cited from earlier work
[3] = molecular target: T1, adenosine receptor 2A (A2A); assay: Competition binding assay using radioactive ligands (CEREP); conditions: fixed compound concentration of 10 μM;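 note: compounds screened at a single fixed 10 µM concentration for displacement of a radioligand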
Description: as §1

T1 sequence (P29274 whole entry): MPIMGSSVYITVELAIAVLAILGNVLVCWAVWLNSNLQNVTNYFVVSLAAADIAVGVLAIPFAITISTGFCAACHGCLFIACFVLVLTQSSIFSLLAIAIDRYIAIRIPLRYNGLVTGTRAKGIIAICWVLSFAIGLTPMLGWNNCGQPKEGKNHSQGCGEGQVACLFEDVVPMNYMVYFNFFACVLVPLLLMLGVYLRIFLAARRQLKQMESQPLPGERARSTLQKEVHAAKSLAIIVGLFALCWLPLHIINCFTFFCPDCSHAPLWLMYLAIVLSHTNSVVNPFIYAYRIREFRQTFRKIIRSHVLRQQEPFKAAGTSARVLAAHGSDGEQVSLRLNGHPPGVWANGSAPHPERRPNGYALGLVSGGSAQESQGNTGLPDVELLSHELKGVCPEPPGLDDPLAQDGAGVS

In the case of `CC(=O)CCCCn1c(=O)c2c(ncn2C)n(C)c1=O` [Pentoxifylline], the inhibition at up to 10 µM [1] is given as under 50%, the inhibition [2] is given as under 50% and the IC50 (A2A) is given as about 10 µM. For the same molecule, the inhibition at 10 µM [3] was under 50%.

For `Cn1c(=O)c2c(ncn2CC(O)CO)n(C)c1=O` (centres unmarked) [dyphylline], the IC50 (A2A) is given as about 10 µM.

— publication PMC6317804, “The integration of pharmacophore-based 3D QSAR modeling and virtual screening in safety profiling: A case study to identify antagonistic activities against adenosine receptor, A2A, using 1,897 known drugs” (PLoS ONE, 2019)
